Assay results: patent publication US11440898B2, “Isoquinoline compounds, methods for their preparation, and therapeutic uses thereof in conditions associated with the alteration of the activity of beta galactosidase” (Minoryx Therapeutics S.L., priority 2016, dated 2022)

Target: T1, mutated beta-galactosidase (p.R60H canine GLB1) in GM11473 fibroblasts (Canis lupus familiaris, UniProt Q9TRY9, R60H)
T1 construct: host or cells: GM11473 canine GM1 gangliosidosis fibroblasts
T1 sequence (Q9TRY9 30-668 R60H): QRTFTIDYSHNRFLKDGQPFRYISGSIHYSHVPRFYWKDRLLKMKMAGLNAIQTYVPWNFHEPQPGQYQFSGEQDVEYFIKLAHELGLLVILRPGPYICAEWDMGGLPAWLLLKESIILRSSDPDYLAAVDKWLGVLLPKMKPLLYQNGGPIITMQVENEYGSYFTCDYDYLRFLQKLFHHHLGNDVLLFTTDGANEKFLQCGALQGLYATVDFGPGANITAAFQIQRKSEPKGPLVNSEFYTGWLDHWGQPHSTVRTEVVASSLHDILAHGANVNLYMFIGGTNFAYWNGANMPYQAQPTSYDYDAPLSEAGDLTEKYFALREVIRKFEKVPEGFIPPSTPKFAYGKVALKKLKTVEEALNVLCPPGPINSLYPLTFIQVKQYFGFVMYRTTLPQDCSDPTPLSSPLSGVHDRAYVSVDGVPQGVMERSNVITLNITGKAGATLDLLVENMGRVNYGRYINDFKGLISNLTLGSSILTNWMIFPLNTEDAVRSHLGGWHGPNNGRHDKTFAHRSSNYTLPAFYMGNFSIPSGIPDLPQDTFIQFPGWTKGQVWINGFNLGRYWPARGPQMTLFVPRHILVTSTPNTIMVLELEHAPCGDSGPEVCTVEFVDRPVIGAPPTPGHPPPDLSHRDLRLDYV
Assay: Enhancement of β-galactosidase activity measured in GM1 fibroblasts (GM11473), 4-MU-β-D-galactopyranoside substrate
Type: cell-based
Set-up: key: Increase in comparison with non-treated of >2.5 fold is shown as A; Increase in comparison with non-treated of >1.7-2.5 fold is shown as B; Increase in comparison with non-treated of 1.2-1.7 fold is shown as C; D means that no increase compared with non-treated cells was detected in this method
Settings: increase in β-galactosidase enzyme activity vs non-treated cells, concentrations between 6 and 50 μM, 4 days incubation
Procedure: The capacity of the Compounds of the Disclosure to enhance mutated beta-galactosidase activity levels in GM1 fibroblasts was assayed as follows.
Fibroblasts homozygous for a GM1 gangliosidosis missense mutation (GM11473) (canine fibroblasts homozygous for the GM1 gangliosidosis missense mutation p.R60H equivalent to human p.R59H mutation) were purchased from Coriell Institute for Medical Research (Camden, N.J., USA).
Fibroblasts were seeded at 4×10^4 cells per well in 12-well cell culture plates in Dulbecco's Modified Eagle's Media (DMEM) supplemented with 10% of fetal bovine serum (FBS), 1% penicillin/streptomycin (P/S) (Thermo Fisher Scientific, Waltham, Mass., USA) and incubated at 37° C., 5% CO2 overnight for cell attachment. Subsequently, cells were incubated in the absence or presence of the compounds at the desired concentration for 4 days. After incubation, cells were washed twice with phosphate-buffered saline (“PBS”) and detached using Trypsin-EDTA solution (Sigma Aldrich, St. Louis, Mo., USA) to prepare cell pellets. The pellets were stored at −80° C. until activity assays were performed.
β-Galactosidase activity in cell lysates was measured by using 4-Methylumbelliferyl-β-D-galactopyranoside substrate (Sigma Aldrich, St. Louis, Mo., USA). Briefly, lysates were resuspended in 200 μL of 0.9% NaCl containing 0.01% triton X-100 lysis buffer to promote membrane disruption. The cell suspension was sonicated and centrifuged to remove insoluble materials. Then, lysates were mixed with 4-MU-β-D-galactopyranoside in 100 mM citrate buffer (pH=4) and 100 mM NaCl for 60 min at 37° C. The reaction was terminated by adding 100 mM glycine-NaOH buffer (pH=10.7). The liberated 4-MU was measured on a GloMax Discover plate reader (Promega, Madison, Wis., USA) with excitation at 340 nm and emission at 460 nm. Protein quantification was determined using Pierce BCA Protein Assay Kit (Thermo Fisher Scientific, Waltham, Mass., USA). Measurements were interpolated in a 4-MU standard curve and normalized by protein quantity. Enzyme activities were expressed in treated cells as X-fold increase in comparison with non-treated cells (X=1 represents no enhancement).
The capacity of the Compounds of the Disclosure to produce an increase in β-galactosidase enzyme activity in canine GM1 fibroblasts bearing p.R60H canine GLB1 mutation at concentrations between 6 and 50 μM is denoted as follows: • Increase in comparison with non-treated of >2.5 fold is shown as A. • Increase in comparison with non-treated of >1.7-2.5 fold is shown as B. • Increase in comparison with non-treated of 1.2-1.7 fold is shown as C. • D means that no increase compared with non-treated cells was detected in this method. • ND means “not determined.”

Structure (SMILES) | Activity in GM11473 fibroblasts
COc1ccc2ccnc(Nc3ccnc(C(=O)NCc4ccc5c(c4)OCCO5)c3)c2c1 [Example 25, N-((2,3-dihydrobenzo[b][1,4]dioxin-6-yl)methyl)-4-((7-methoxyisoquinolin-1-yl)amino)picolinamide] | C (Increase in comparison with non-treated of 1.2-1.7 fold is shown as C)
O=C(NCC(c1cccnc1)N1CCCC1)c1ccc(Nc2nccc3ccc(Cl)cc23)cc1 (centres unmarked) [Example 6, 4-((7-Chloroisoquinolin-1-yl)amino)-N-(2-(pyridin-3-yl)-2-(pyrrolidin-1-yl)ethyl)benzamide] | D
O=S(=O)(NCc1ccc2c(c1)OCCO2)c1ccc(Nc2nccc3ccc(Cl)cc23)cc1 [Example 75, 4-((7-chloroisoquinolin-1-yl)amino)-N-((2,3-dihydrobenzo[b][1,4]dioxin-6-yl)methyl)benzenesulfonamide] | B (Increase in comparison with non-treated of >1.7-2.5 fold is shown as B)
COc1ccc(CNC(=O)c2ccc(Nc3nccc4ccc(Cl)cc34)cn2)cc1OC [Example 32, 5-((7-Chloroisoquinolin-1-yl)amino)-N-(3,4-dimethoxybenzyl)picolinamide] | C (Increase in comparison with non-treated of 1.2-1.7 fold is shown as C)
O=C(NCC1CCc2ccccc2C1)c1ccc(Nc2nccc3ccc(Cl)cc23)cn1 (centres unmarked) [Example 41, 5-((7-Chloroisoquinolin-1-yl)amino)-N-((1,2,3,4-tetrahydronaphthalen-2-yl)methyl)picolinamide] | B (Increase in comparison with non-treated of >1.7-2.5 fold is shown as B)
O=C(NCc1ccccc1)c1cccc(Nc2nccc3ccc(Cl)cc23)c1 [Example 4, N-benzyl-3-((7-chloroisoquinolin-1-yl)amino)benzamide] | D
Cn1nnc2c(NS(=O)(=O)c3cccc(Nc4nccc5ccc(Cl)cc45)c3)cccc21 [Example 67, 3-((7-Chloroisoquinolin-1-yl)amino)-N-(1-methyl-1H-benzo[d][1,2,3]triazol-4-yl)benzenesulfonamide] | C (Increase in comparison with non-treated of 1.2-1.7 fold is shown as C)
COc1ccc(CNC(=O)c2cc(Nc3nccc4ccc(Cl)cc34)ccn2)cc1OC [Example 12, 4-((7-Chloroisoquinolin-1-yl)amino)-N-(3,4-dimethoxybenzyl)picolinamide] | C (Increase in comparison with non-treated of 1.2-1.7 fold is shown as C)
O=C(NCc1ccc2c(c1)CCO2)c1cc(Nc2nccc3ccc(Cl)cc23)ccn1 [Example 16, 4-((7-Chloroisoquinolin-1-yl)amino)-N-((2,3-dihydrobenzofuran-5-yl)methyl)picolinamide] | C (Increase in comparison with non-treated of 1.2-1.7 fold is shown as C)
O=S(=O)(NC1CCc2ccccc2C1)c1cccc(Nc2nccc3ccc(Cl)cc23)c1 (centres unmarked) [Example 70, 3-((7-Chloroisoquinolin-1-yl)amino)-N-(1,2,3,4-tetrahydronaphthalen-2-yl)benzenesulfonamide] | C (Increase in comparison with non-treated of 1.2-1.7 fold is shown as C)
O=C(NC1CCc2ccccc2C1)c1cc(Nc2nccc3ccc(Cl)cc23)ccn1 (centres unmarked) [Example 14, 4-((7-Chloroisoquinolin-1-yl)amino)-N-(1,2,3,4-tetrahydronaphthalen-2-yl)picolinamide] | B (Increase in comparison with non-treated of >1.7-2.5 fold is shown as B)
O=C(NCc1ccccc1)c1ccc(Nc2nccc3ccc(Cl)cc23)nc1 [Example 55, N-benzyl-6-((7-chloroisoquinolin-1-yl)amino)nicotinamide] | C (Increase in comparison with non-treated of 1.2-1.7 fold is shown as C)
O=C(NCc1ccc2c(c1)OCCO2)c1ccc(Nc2nccc3ccc(Cl)cc23)cc1 [Example 5, 4-((7-Chloroisoquinolin-1-yl)amino)-N-((2,3-dihydrobenzo[b][1,4]dioxin-6-yl)methyl)benzamide] | B (Increase in comparison with non-treated of >1.7-2.5 fold is shown as B)
O=C(NCc1ccc2c(c1)CCCO2)c1ccc(Nc2nccc3ccc(Cl)cc23)nc1 [Example 63, 6-((7-Chloroisoquinolin-1-yl)amino)-N-(chroman-6-ylmethyl)nicotinamide] | C (Increase in comparison with non-treated of 1.2-1.7 fold is shown as C)
COc1ccc(CNC(=O)c2cc(Nc3nccc4ccc(Cl)cc34)ccn2)cc1 [Example 10, 4-((7-Chloroisoquinolin-1-yl)amino)-N-(4-methoxybenzyl)picolinamide] | D
O=S(=O)(NCC1CCc2ccccc2C1)c1ccc(Nc2nccc3ccc(Cl)cc23)cc1 (centres unmarked) [Example 78, 4-((7-Chloroisoquinolin-1-yl)amino)-N-((1,2,3,4-tetrahydronaphthalen-2-yl)methyl)benzenesulfonamide] | A (Increase in comparison with non-treated of >2.5 fold is shown as A)
O=C(NCCc1ccc2c(c1)OCCO2)c1cc(Nc2nccc3ccc(Cl)cc23)ccn1 [Example 18, 4-((7-Chloroisoquinolin-1-yl)amino)-N-(2-(2,3-dihydrobenzo[b][1,4]dioxin-6-yl)ethyl)picolinamide] | C (Increase in comparison with non-treated of 1.2-1.7 fold is shown as C)
